Reference: ChEMBL document CHEMBL1144576, “Synthesis and antitumour evaluation of peptidyl-like derivatives containing the 1,3-benzodioxole system” (Eur J Med Chem, 2007)

Assays:
SF-295 = assay: Cytotoxicity against SF295 cells; type: functional, cell-based; details: Homo sapiens
Lytechinus variegatus [1] = assay: Antimitotic effect in Lytechinus variegatus at blastulae stage at 10 ug/mL; type: functional, Blastula stage
HCT-8 = assay: Cytotoxicity against HCT8 cells; type: functional, cell-based; details: Homo sapiens
Lytechinus variegatus [2] = assay: Antimitotic effect in Lytechinus variegatus at first cleavage stage at 100 ug/mL; type: functional
Lytechinus variegatus [3] = assay: Antimitotic effect in Lytechinus variegatus at first cleavage stage at 10 ug/mL; type: functional
Lytechinus variegatus [4] = assay: Antimitotic effect in Lytechinus variegatus at third cleavage stage at 100 ug/mL; type: functional
Lytechinus variegatus [5] = assay: Antimitotic effect in Lytechinus variegatus at third cleavage stage at 10 ug/mL; type: functional
MDA-MB-435 = assay: Cytotoxicity against MDA-MB-435 cells; type: functional, cell-based; details: Homo sapiens
HL-60 = assay: Cytotoxicity against HL60 cells; type: functional, cell-based; details: Homo sapiens
Lytechinus variegatus [6] = assay: Antimitotic effect in Lytechinus variegatus at blastulae stage at 100 ug/mL; type: functional, Blastula stage

SMILES	IC50 (SF-295) [µM]	Activity (Lytechinus variegatus [1]) [%]	IC50 (HCT-8) [µM]	Activity (Lytechinus variegatus [2]) [%]	Activity (Lytechinus variegatus [3]) [%]	Activity (Lytechinus variegatus [4]) [%]	Activity (Lytechinus variegatus [5]) [%]	IC50 (MDA-MB-435) [µM]	IC50 (HL-60) [µM]	Activity (Lytechinus variegatus [6]) [%]
C[C@H](NC(=O)Cc1ccc2c(c1)OCO2)C(N)=O	> 50	92	> 50	76.5	76.3	78.7	68.3	> 50	> 50	87.7
CC(C)C[C@H](NC(=O)Cc1cc2c(cc1[N+](=O)[O-])OCO2)C(N)=O	19.1	80.3	> 50	94.3	88.3	72.7	77	> 50	> 50	89
NC(=O)[C@H](Cc1ccccc1)NC(=O)Cc1cc2c(cc1[N+](=O)[O-])OCO2	> 50	92	> 50	1.7	86.3	5.3	73.3	> 50	> 50	0
CC(C)(C)OC(=O)NCCCC[C@H](NC(=O)Cc1cc2c(cc1[N+](=O)[O-])OCO2)C(N)=O	31.6	79.7	> 50	88.7	88.7	66.3	72.3	9.2	5.4	3.7
CC[C@@H](C)[C@H](NC(=O)Cc1ccc2c(c1)OCO2)C(N)=O	> 50	94.7	> 50	87.7	89.3	70.3	62	> 50	> 50	84.7
NC(=O)[C@H](Cc1ccc(Oc2c(Cl)cccc2Cl)cc1)NC(=O)Cc1cc2c(cc1[N+](=O)[O-])OCO2	> 50	1.7	8.5	85.3	92.3	46	38	9.9	> 50	15
CCOC(=O)CNC(=O)Cc1ccc2c(c1)OCO2	13.5	83.7	4.3	79.7	83	15.7	71.3	> 50	18.7	0.3
CC(C)[C@H](NC(=O)Cc1ccc2c(c1)OCO2)C(N)=O	> 50	96.7	> 50	70.7	88	61.7	67	> 50	> 50	1
COc1cccc2c1C(=O)c1c(O)c3c(c(O)c1C2=O)C[C@@](O)(C(=O)CO)C[C@@H]3O[C@H]1C[C@H](N)[C@H](O)[C@H](C)O1 [DOXORUBICIN]	0.42	0.3	0.03	16.3	36	1.5	0	0.83		0
C=CCc1ccc2c(c1)OCO2 [SAFROLE]	32.6	31.7	36.1	0.7	59.5	0	33.7	105	104	0.3
